Laboratory results taken from US20200046625A1, “COMPOUNDS USEFUL FOR THE TREATMENT AND/OR CARE OF THE SKIN, HAIR, NAILS AND/OR MUCOUS MEMBRANES” (LUBRIZOL ADVANCED MATERIALS, INC., priority 2016, published 2020).
The star is where a group is joined. Palmitoyl = CCCCCCCCCCCCCCCC(=O)*; Myristoyl = CCCCCCCCCCCCCC(=O)*

Legend:
[1] = tested on: primary human subcutaneous pre-adipocyte cells; assay: Reduction of lipid accumulation, AdipoRed fluorescent assay; format: cell-based; conditions: 8 days of treatment, PGM2 = 0%, PDM2 basal control = 100%
Experimental: The reduction of the percentage of lipid accumulation in human pre-adipocyte cells in a complete differentiation medium (basal control) is studied by treatment of the cells with the peptides of the invention. Quantification of lipid accumulation is evaluated with AdipoRed™ Assay Reagent (Lonza). Human pre-adipocyte cells (Lonza) are seeded in quadruplicate (10.000 cells/well) on a 96-well plate and they are incubated on a complete growth medium (PGM2, Lonza) for 24 hours at […] in a water-saturated atmosphere composed of 95% air and 5% CO2. The differentiation of pre-adipocytes into adipocytes is induced by changing the complete growth medium (PGM2, Lonza) for the complete differentiation medium (PDM2, Lonza). The cells are treated with the peptides of the invention at different concentrations prepared in complete differentiation medium. Caffeine (Sigma) at 0.2 mg/ml in PDM2 medium is used as a negative control of the lipid accumulation in the cells. Caffeine is the most widely used anti-cellulite cosmetic agent. […] Manufacturer protocol is followed for the use of AdipoRed™ Assay Reagent (Lonza). In brief, the cells are washed and the reagent AdipoRed™ is added diluted (5/200). After being incubated for 15 minutes in darkness and at room temperature, the Relative Fluorescence Units (RFUs) are measured using a fluorescence plate reader (CLARIOstar™, BMG LABTECH), with excitation filter at 485 nm and emission filter at 572 nm. […] The results are calculated as the mean of all the independent experiments carried out in each case for each peptide and concentration assayed.

[2] = tested on: Nocturnin (CCRN4L) in primary human subcutaneous pre-adipocyte cells; assay: Relative level of nocturnin by ELISA, normalized with BCA total protein; format: cell-based; conditions: for Nocturnin level with respect to basal condition (%): 6 days of treatment, mean of 3 independent experiments
Experimental: The decrease in the relative level of nocturnin protein in human pre-adipocytes, cells that form adipose tissue, in a complete differentiation medium (basal condition) is studied when treating the peptides of the invention.
Human pre-adipocytes are seeded (10,000 cells/well, 4 wells per condition) on a 96-well plate and incubated on a complete growth medium (PGM2, LONZA) for 24 hours at 37° C. at an atmosphere with a CO2 level of 5%.
After incubation, the cells are treated with the peptides at 0.1, 0.5 and 1 mg/ml and its respective vehicles prepared in a complete differentiation medium (PDM2, LONZA). After 6 days of treatment at an atmosphere with 37° C. and a 5% CO2 level, the nocturnin level is measured using an ELISA test, and the total protein concentration is measured using a BCA (Bicinchoninic Acid) assay. For each concentration, the ELISA results are normalized with the BCA results. […] The values represent the mean of 3 independent experiments.
The manufacturer protocol of the ELISA kit for Carbon Catabolite Repression 4 Like Protein (CCRN4L) (Uscn Life Science Inc) is followed. In brief, the cells are lysed and the cell extracts are incubated on a 96-well plate coated with an anti-body specific to CCRN4L. Afterwards, the wells are coated with an antibody specific to CCRN4L conjugated with Biotin. Next, the Avidin conjugated with the enzyme Horseradish Peroxidase (HRP) is added to the plate. Finally, 3,3′,5,5′-Tetramethylbenzidine substrate is added to the plate and a change in color is observed proportionally to the quantity of nocturnin in each concentration. Lastly, a sulfuric acid solution is added to stop the enzyme-substrate reaction and quantify the color change with an absorbance reader (CLARIOstar™, BMG LABTECH) at 450 and 570 nm.
The manufacturer protocol of the BCA Protein assay kit (Pierce) is followed. The total protein concentration of the lysed cells is measured via a colorimetric reaction using a protein standard. In brief, the standard and the samples are distributed onto 96-well plates. The plate is then incubated with the reagent of the kit and finally the change in color is measured with the absorbance reader (CLARIOstar, BMG LABTECH) at 570 nm.

Molecule	% Lipid Accumulation ([1]; 1 mg/ml)	further results
H-Tyr-Val-Tyr-Phe-Trp-NH2 (H-YVYFW-NH2)	76.47%	
H-Tyr-Val-Tyr-NH2	15.65%	% Lipid Accumulation ([1]; 0.1 mg/ml): 32.65%; % Lipid Accumulation ([1]; 0.5 mg/ml): 18.60%; Nocturnin level with respect to basal condition (%) ([2]; 0.1 mg/mL): 76%; Nocturnin level with respect to basal condition (%) ([2]; 0.5 mg/mL): 62%; Nocturnin level with respect to basal condition (%) ([2]; 1 mg/mL): 48%; dose-response of nocturnin reduction (in words) ([2]; 0.1, 0.5 and 1 mg/ml): a dose-response relationship is observed
Myristoyl-Tyr-Val-Phe-NH2	37.77%	
H-Tyr-Ile-Tyr-NHC6H13	52.82%	
H-Phe-Trp-Tyr-Val-Tyr-NH2 (H-FWYVY-NH2)		% Lipid Accumulation ([1]; 0.005 mg/ml): 55.99%
H-Tyr-Val-Tyr-NHC6H13	30.79%	
Palmitoyl-Tyr-Leu-Tyr-NH2	25.42%	
H-Tyr-Ile-Phe-NH2	47.45%	
H-Tyr-Ile-Phe-NHC6H13	30.72%	
Cn1c(=O)c2c(ncn2C)n(C)c1=O [Caffeine, reference compound]		% Lipid Accumulation ([1]; 0.2 mg/ml in PDM2): 76.07%
H-Tyr-Ile-Tyr-NH2	46.63%	
H-Tyr-Met-Tyr-NH2	40.24%	
H-Tyr-Val-Tyr-NHC16H33	50.12%	
H-Tyr-Val-Trp-NH2	61.87%	
H-Tyr-Val-Tyr-OH	22.66%	% Lipid Accumulation ([1]; 0.1 mg/ml): 35.14%; % Lipid Accumulation ([1]; 0.5 mg/ml): 33.55%; Nocturnin level with respect to basal condition (%) ([2]; 0.1 mg/mL): 67%; Nocturnin level with respect to basal condition (%) ([2]; 0.5 mg/mL): 87%; Nocturnin level with respect to basal condition (%) ([2]; 1 mg/mL): 83%
H-Tyr-Leu-Trp-NH2	62.42%	
Ac-Trp-Val-Tyr-NH2	63.18%	
H-Tyr-Ile-Tyr-NHC16H33	23.74%	
Ac-Tyr-Val-Tyr-NH2	20.81%	
H-Tyr-Ile-Phe-NHC16H33	40.61%	
H-Phe-Tyr-Val-Tyr-Phe-NH2 (H-FYVYF-NH2)	64.31%	
Myristoyl-Tyr-Val-Tyr-NH2	12.40%	
H-Tyr-Val-Tyr-Trp-NH2 (H-YVYW-NH2)	90.32%	
Palmitoyl-Tyr-Leu-Tyr-OH		% Lipid Accumulation ([1]; 0.005 mg/ml): 79.98%
Palmitoyl-Tyr-Val-Tyr-NH2		% Lipid Accumulation ([1]; 0.1 mg/ml): 86.17%
H-Tyr-Val-Tyr-Phe-NH2 (H-YVYF-NH2)	86.68%	
